Numbers after ± are expanded uncertainties.
Settings: 101.33 kPa, Liquid, Pycnometric method

Compound | mass density (298.15 K) [kg/m3] | mass density (293.15 K) [kg/m3]
Cc1ccccc1C [1,2-dimethylbenzene] | 875.9 ± 5.8 | –
CC#N [acetonitrile] | 776.5 ± 1.2 | –
C=CC#N [acrylonitrile] | 800.3 ± 5.7 | –
Nc1ccccc1 [aniline] | 1017.3 ± 6.1 | –
Clc1ccccc1 [chlorobenzene] | – | 1106 ± 6.3
CN(C)C=O [dimethylformamide] | – | 948.7 ± 5.9
CCCCCCO [hexan-1-ol] | 815.3 ± 1.2 | –
O=[N+]([O-])c1ccccc1 [nitrobenzene] | 1198 ± 6.5 | –

Source: the NIST ThermoML archive (doi:10.1016/j.fluid.2010.08.010)
